Legend:
[1] = test system: E. globulus hypocotyl sections; experiment: E. globulus gene introduction test, vector pIPT10 (ipt only + GUS), adventitious bud redifferentiation and GUS staining; type: cell-based, Eucalyptus globulus; details: for B/A Redifferentiation ratio / C/A Gene introduction ratio / C/B Selection efficiency: section basis
Procedure: Seeds of E. globulus from Chile were sterilized by soaking in 70% ethanol for about 1 minute and then soaking with stirring in a 2% aqueous sodium hypochlorite solution for about 4 hours, washed thoroughly with sterile water, inoculated on an MS agar medium to which 0.5 mg/l zeatin had been added and stored in a refrigerator at 4° C. for 2 days to accelerate germination, and then the germination was carried out by culturing at 25° C. under light conditions of about 10 μmol/m^2/s in light intensity. One to two weeks after the inoculation of the seeds onto the germination medium, hypocotyls were collected by cutting out apical buds, cotyledons and roots of the germinated seedlings, and the hypocotyls were cut into sections of about 5 mm to be used as samples for gene introduction and subjected to the following test. A. tumefaciens EHA105 introduced with the plasmid pIAH6 in the above item I was cultured overnight in the YEB liquid medium and then diluted to OD630 =0.5 with EG basal medium, and the sections of hypocotyl prepared in the above were soaked in the cell suspension. Next, each of the sections after removing excess cell suspension was co-cultured with Agrobacterium on an agar medium (agar 8.5 g/l) prepared by adding 1.0 mg/l zeatin, 0.05 mg/l NAA and 40 mg/l acetosyringone to the EG basal medium, at 25° C. for 3 days in the dark to thereby infect each section with the pIAH6-introduced Agrobacterium. In this case, a modified MS medium having an ammonia nitrogen/nitrate nitrogen concentration ratio of 1:3 (5 mM NH4, 15 mM NO3) was supplemented with 20 g/l sucrose and used as the EG basal medium. The sections after infection culturing were put on an EG basal agar medium (agar 8.5 g/l) supplemented with 500 mg/l ticarcillin and 1 μM or 10 μM of an auxin precursor analogue NAM, and the culturing was continued at 25° C. under light conditions of 30 to 40 μmol/m^2/s in light intensity while sub-culturing at an interval of 2 weeks using the same medium. Among these sections, the quicker ones redifferentiated adventitious buds after about 2 months of the Agrobacterium infection. Three months after the Agrobacterium infection, in order to examine expression of the GUS gene used as a model of the desired gene, the redifferentiated adventitious buds were subjected to a GUS staining test in accordance with the method of Jefferson et al. (Plant Mol. Biol. Rep., 5: 387-405 (1987)), and the degree of formation of desired gene-introduced adventitious buds was judged by examining the number of stained adventitious buds (the number of adventitious buds expressing the desired gene). An E. globulus gene introduction test was carried out in the same manner as in Example 1, except that the hypocotyl sections after the Agrobacterium infection were cultured using the EG basal agar medium (agar 8.5 g/l) supplemented with 500 mg/l ticarcillin and 0 μM, 1 μM or 10 μM NAA as auxin. An E. globulus gene introduction test was carried out in the same manner as in Example 1 or Comparative Example 1, except that a plasmid pIPT10 having only the ipt gene as the selectable marker gene was used as the vector. Also, the vector also has the GUS gene as a model of the desired gene. Structure of T-DNA region of the pIPT10 used in this case is shown in FIG. 2, and results of the gene introduction test are shown in Table 3.

[2] = test system: populus hybrid strain Y63 stem sections; experiment: populus hybrid gene introduction test, vector pIAH6, adventitious bud redifferentiation and multiple bud observation; type: cell-based, Populus sieboldii×Populus grandidentata; details: for B Adventitious bud differentiated (number of sections): 10 sections tested; for B/A Redifferentiation ratio / C/A Gene introduction ratio / C/B Selection efficiency: section basis; for number of redifferentiated adventitious buds into which the desired gene was introduced / total number of adventitious buds redifferentiated: bud basis; for C GUS + adventitious bud differentiated (number of sections): sections with bud judged as a multiple bud after culturing for 4 months
Procedure: A transformant was produced by carrying out gene introduction into a populus hybrid (Populus sieboldii×Populus grandidentata) by the method of the present invention using the pIAH6 used in Example 1 as the vector. A stem of an aseptic seedling of a populus hybrid strain […] That is, the pIAH6-introduced A. tumefaciens LBA4404 obtained in the same manner as in Example 1 was cultured overnight in the YEB liquid medium and then diluted to OD630=0.5 with Y basal medium, and the stem sections prepared in the above were soaked in this cell suspension. Next, each of these sections after removing excess cell suspension was co-cultured with Agrobacterium on an agar medium (agar 8 g/l) prepared by adding 40 mg/l acetosyringone to the Y basal medium, at 25° C. for 3 days in the dark to thereby be infect with the pIAH6-introduced Agrobacterium. In this case, a modified MS medium (10 mM NH4, 30 mM NO3) was supplemented with 20 g/l sucrose and used as the Y basal medium. The sections after infection culturing were put on the Y basal agar medium (agar 8 g/l) supplemented with 500 mg/l ticarcillin and 1 μM, 5 μM or 30 μM of an auxin precursor analogue NAM, followed by culturing at 25° C. under light conditions of 30 to 40 μmol/m^2/s in light intensity. […] That is, since the ipt gene is not introduced into the escape, the adventitious bud was redifferentiated by mere influence of a desired gene-introduced cell which was present adjacent thereto.

[3] = test system: stem sections of a high rooting clone of E. globulus; experiment: gene introduction test on high rooting clone of E. globulus, vector pIAH6, GUS staining; type: cell-based, Eucalyptus globulus; details: NAM 1 μM
Procedure: Definite buds of a high rooting clone of E. globulus from Chile were aseptically grown using a medium prepared by adding 0.5 mg/l zeatin to the Y basal medium of Example 2, and the elongated stems were cut into sections of 5 mm to be used as samples for gene introduction and infected with the plasmid pIAH6-introduced Agrobacterium in the same manner as in Example 1. The sections after infection culturing were put on an EG basal agar medium (agar 8.5 g/l) supplemented with 500 mg/l ticarcillin and 1 μM of an auxin precursor analogue NAM, and the culturing was continued at 25° C. under light conditions of 30 to 40 μmol/m^2/s in light intensity while sub-culturing at an interval of 2 weeks using the same medium. Four months after the Agrobacterium infection, the redifferentiated adventitious buds were subjected to a GUS staining test in accordance with the above method of Jefferson et al., and the degree of formation of desired gene-introduced adventitious buds was judged.

NC(=O)Cc1cccc2ccccc12 [NAM, naphthaleneacetic acid amide]
B Adventitious bud differentiated (number of sections) ([1]; additive 1 μM in medium): 2 number of sections
C GUS + adventitious bud differentiated (number of sections) ([1]; additive 1 μM in medium): 0 number of sections
B/A Redifferentiation ratio ([1]; additive 1 μM in medium): 4.4%
C/A Gene introduction ratio ([1]; additive 1 μM in medium): 0.0%
C/B Selection efficiency ([1]; additive 1 μM in medium): 0%
B Adventitious bud differentiated (number of sections) ([1]; additive 10 μM in medium): 0 number of sections
C GUS + adventitious bud differentiated (number of sections) ([1]; additive 10 μM in medium): 0 number of sections
B/A Redifferentiation ratio ([1]; additive 10 μM in medium): 0%
C/A Gene introduction ratio ([1]; additive 10 μM in medium): 0.0%
C/B Selection efficiency ([1]; additive 10 μM in medium): 0%
B Adventitious bud differentiated (number of sections) ([2]; NAM 1 μM in medium): 7 number of sections
B/A Redifferentiation ratio ([2]; NAM 1 μM in medium): 70.0%
C/A Gene introduction ratio ([2]; NAM 1 μM in medium): 50.0%
C/B Selection efficiency ([2]; NAM 1 μM in medium): 71.4%
number of redifferentiated adventitious buds into which the desired gene was introduced ([2]; NAM 1 μM): 6
total number of adventitious buds redifferentiated ([2]; NAM 1 μM): 67
C GUS + adventitious bud differentiated (number of sections) ([2]; NAM 1 μM): 5 number of sections
B Adventitious bud differentiated (number of sections) ([2]; NAM 5 μM in medium): 6 number of sections
B/A Redifferentiation ratio ([2]; NAM 5 μM in medium): 60.0%
C/A Gene introduction ratio ([2]; NAM 5 μM in medium): 40.0%
C/B Selection efficiency ([2]; NAM 5 μM in medium): 66.7%
number of redifferentiated adventitious buds into which the desired gene was introduced ([2]; NAM 5 μM): 5
total number of adventitious buds redifferentiated ([2]; NAM 5 μM): 34
C GUS + adventitious bud differentiated (number of sections) ([2]; NAM 5 μM): 4 number of sections
B Adventitious bud differentiated (number of sections) ([2]; NAM 30 μM in medium): 0 number of sections
B/A Redifferentiation ratio ([2]; NAM 30 μM in medium): 0%
C/A Gene introduction ratio ([2]; NAM 30 μM in medium): 0%
C/B Selection efficiency ([2]; NAM 30 μM in medium): 0%
C GUS + adventitious bud differentiated (number of sections) ([2]; NAM 30 μM): 0 number of sections
sections whose buds had the desired gene introduced (GUS staining) ([3]; among 40 stem sections): 3 sections
sections from which adventitious buds were differentiated ([3]; among 40 stem sections, 4 months after infection): 5 sections
gene introduction ratio into adventitious buds ([3]; section basis): 7.5%
redifferentiation ratio of adventitious buds ([3]; section basis): 12.5%
selection efficiency ([3]; section basis): 60.0%
